Where two headings read alike, the source gives them in different places.

In data set [1] the test system is Molt-4 cells. As to the kind of experiment: Molt-4 cell killing activity test (CCK-8). The data set is classed as cell-based. The conditions noted are these: for EC50: Homo sapiens. Here is the method: Molt-4 cells were cultured and amplified in 10 cm dishes by using RPMI-1640 medium supplemented with 10% fetal bovine serum. Actively growing and healthy Molt-4 cells were collected, centrifuged at 1000 rpm for 5 minutes, and after removing the supernatant, the cells were resuspended in fresh RPMI-1640 medium containing 10% fetal bovine serum. Cell counting was then performed. The cell density was adjusted to 120,000 cells per milliliter, and 100 µL of the cell suspension was added to each well of a 96-well transparent cell culture plate. It was noted that the edge wells of the 96-well plate were not used for testing; and 300 µL of PBS alone was added to these wells to reduce medium evaporation.
The small molecule compounds to be tested for activity were prepared. A series of small molecule concentration gradients (0.001, 0.003, 0.01, 0.03, 0.1, 0.3, 1, and 3 µM) were pre-set, and a series of 2× drug dilutions for the above concentrations were prepared in RPMI-1640 medium containing 10% fetal bovine serum. 100 µL of the above medium containing the gradient concentrations of the drug was added to each well of a 96-well plate pre-seeded with cells, so that the final drug concentration in each well was the pre-set concentration gradient. Three replicate wells were used for each tested drug concentration. The 96-well plate was placed back in a 37°C incubator, and the cell viability was measured after three days.
The plate was taken out three days after adding the drugs, and 100 µL of pre-prepared CCK-8 working solution was added to each well. The CCK-8 working solution was obtained through diluting a CCK-8 stock solution (C0041, Beyotime) by 10-fold volumn with a serum-free RPMI-1640 medium. The 96-well plates with the added CCK-8 working solution were placed back in the 37°C incubator and incubated for 0.5-2 hours. The plates were then taken out, and the absorbance value (OD value) of each well was measured at a wavelength of 450 nm, and the cell viability in each experimental group was calculated according to the following formula: Relative cell viability (%) = […] × 100%.

Data set [2] relates to Molt-4 cells. Nature of the data set: Detection of E3 enzyme-dependence: Molt-4 cell killing with or without pomalidomide (CCK-8). Type of data set: cell-based. The conditions noted are these: 10 µM pomalidomide, Figure 2. The protocol:
Actively growing and healthy Molt-4 cells were collected, centrifuged at 1000 rpm for 5 minutes, and after removing the supernatant, the cells were resuspended in fresh RPMI-1640 medium containing 10% fetal bovine serum. Cell counting was then performed. The cell density was adjusted to 120,000 cells per milliliter, and 100 µL of the cell suspension was added to each well of a 96-well transparent cell culture plate. It was noted that the edge wells of the 96-well plate were not used for testing, and 300 µL of PBS alone was added to these wells to reduce medium evaporation.
Molt-4 cells were plated in duplicate according to the number of the tested small molecules, so as to test the effects with and without the addition of pomalidomide (a competitive ligand specific for E3 ligase), in which one half of the parallel cells was added 10 µM pomalidomide. A series of small molecule concentration gradients (0.001, 0.003, 0.01, 0.03, 0.1, 0.3, 1, and 3 µM) were pre-set, and a series of 2× drug dilutions for the above concentrated were prepared in DMEM medium containing 10% fetal bovine serum. 100 µL of the above DMEM medium containing the gradient concentrations of the drug was added to 96-well plates that have been pre-plated with cells, so that the final drug concentration in each well was the pre-set series of concentrations respectively. Three replicate wells were used for each test drug concentration. The 96-well plates were placed back in a 37°C incubator, and the cell viability was detected after three days.
Cell viability after drug treatment was detected by using the CCK-8 method: three days after adding the drugs, the plates were taken out, and the supernatant was discarded. Then, 100 µL of pre-prepared CCK-8 working solution was added to each well. The CCK-8 working solution was obtained through diluting a CCK-8 stock solution (C0041, Beyotime) by 10-fold volumn with a serum-free DMEM culture medium. The 96-well plates with the added CCK-8 working solution were placed back in the 37°C incubator and incubated for 0.5-2 hours. The plates were then taken out, and the absorbance value (OD value) of each well was measured at a wavelength of 450 nm. The cell viability in each experimental group was calculated according to the following formula: Relative cell viability (%) = (Blank control group - Experimental group) / Blank control group × 100%.

The subject of the next data set is HEF cells. As to the kind of experiment: Senescent cell killing activity test, HEF cell model (CCK-8). Type of data set: cell-based, human. The conditions noted are these: higher concentration (25 µM). Here is the method: To avoid replication of the induced senescent cells, low-passage proliferating HEF cells (<10 passages), MRC5 cells (<6 passages), and BJ cells (<10 passages) were used as normal controls. For chemical drug induced senescence, HEF cells were treated with 10 µM etoposide (Selleck, S1225) for 36-48 hours, MRC5 cells were treated with 5 µM bleomycin (Selleck, S1225) for 72 hours, and BJ cells were treated with 10 µg/mL bleomycin for 72 hours. Three days after the treatment, the cells were subcultured in fresh culture medium at a 1:3 ratio for 72 hours before further analysis and use.
Non-senescent and induced-senescent HEF cells, non-senescent and induced-senescent MRC5 cells, and non-senescent and induced-senescent BJ cells were respectively digested with trypsin, and centrifuged at 1000 rpm for 5 minutes. Then, the supernatant was removed, and the cells were resuspended in fresh DMEM culture medium containing 10% fetal bovine serum for counting. The cell density was adjusted so that the non-senescent cell density was 4000 cells/100 µL and the senescent cell density was 7000 cells/100 µL. 100 µL of the cell suspension was added to each well of a 96-well transparent cell culture plate. It was noted that the edge wells of the 96-well plate were not used as testing wells, and 300 µL of PBS alone was added to these wells to reduce evaporation of the culture medium. The 96-well plates with the well-plated cells were placed back in a 37°C incubator for overnight culture until the cells adhered. On the next day, the small molecule compounds to be tested were prepared and added after the cells had adhered.
A series of small molecule concentration gradients (0.01, 0.03, 0.1, 0.3, 1, 3, 10, and 25 µM) were pre-set, and a series of 2× drug dilutions for the above concentrations were prepared in DMEM culture medium containing 10% fetal bovine serum. 100 µL of the above DMEM culture medium containing the gradient concentrations of the drug was added to each well of the 96-well plate that had been well-plated with cells, so that the final drug concentration in each well was the pre-set series of concentrations. Three replicate wells were used for each test drug concentration. The 96-well plates were placed back in a 37°C incubator, and cell viability was measured after three days.
Three days after adding the drug, the plates were taken out, and the supernatant was discarded. 100 µL of pre-prepared CCK-8 working solution was added to each well. The CCK-8 working solution was obtained through diluting a CCK-8 stock solution (C0041, Beyotime) with a serum-free DMEM culture medium by 10-fold volumn. The 96-well plates containing the CCK-8 working solution were placed back in the 37°C incubator and incubated for 0.5-2 hours. The plates were then taken out, and the absorbance value (OD value) of each well was measured at a wavelength of 450 nm. The cell viability in each experimental group was calculated according to the following formula: Relative cell viability (%) = (Blank control group - Experimental group) / Blank control group × 100%.

A short description of data set [3]: Metabolic stability assay in liver microsomes (mouse). The data set is classed as in vitro ADME. The protocol:
(§1) The metabolic reaction of compounds in liver microsome was performed in a system with a total volume of 400 µL, and the following steps below were sequentially performed for the reaction and detection: 1) 200 µL of phosphate buffer (200 mM), 106 µL of sterile ultrapure water, and 40 µL of magnesium chloride solution (50 mM) were added to each detection tube to prepare a reaction working solution. 2) Two reaction systems with or without adding NADPH were prepared for each compound to be tested. For the reaction system with adding NADPH: 10 µL of liver microsomes (20 mg/mL) and 40 µL of NADPH (10 mM) were added to the above working solution; for the reaction system without adding NADPH: 10 µL of liver microsomes (20 mg/mL) and 40 µL of sterile ultrapure water were added to the above working solution. The final concentration of liver microsomes in both reaction systems was 0.5 mg/mL. 3) 4 µL of the compound to be tested ([…]) was added to each reaction tube, resulting in a final concentration of 1 µM for the compound in the reaction system. The detection tubes were placed at 37°C for reaction. 4) 50 µL samples were taken from each detection tube at 0, 15, 30, 45, and 60 minutes after adding the compound. The reaction was terminated by adding cold acetonitrile containing IS (100 nM alprazolam, 200 nM labetalol, 200 nM caffeine, and 2 µM ketoprofen) in a 4× volume. The samples were centrifuged at 3220 g for 40 minutes, 100 µL of the supernatant was mixed with 100 µL of ultrapure water, and a sample was taken for LC-MS/MS analysis.
(§2) Calculation of in vitro liver microsomal metabolic half-life and in vitro metabolic intrinsic clearance rate: The LC-MS detection results were analyzed to obtain the percentage of the remaining amount of the tested compound relative to the initial amount at each time point. The natural logarithm of the remaining percentage was linearly fitted against the incubation time.
In general terms: Liver microsomes are vesicles of endoplasmic reticulum, rich in cytochrome P450 enzymes.

Data set [4] in a line: Metabolic stability assay in liver microsomes (human). Type of data set: in vitro ADME. The protocol:
as §1, §2

[5] abbreviates: 72 h, Molt-4 cells, three days, CCK-8, read-out: EC50 (Molt-4).
The mark [6] stands for this setting: mouse liver microsomes 0.5 mg/mL, 1 µM compound, 37°C.
[7] abbreviates: human liver microsomes 0.5 mg/mL, 1 µM compound, 37°C.

With `CC1(C)CCC(c2ccc(Cl)cc2)=C(CN2CCN(c3ccc(C(=O)NS(=O)(=O)c4ccc(N[C@H](CCN5CCOCC5)CSc5ccccc5)c(S(=O)(=O)C(F)(F)F)c4)cc3)CC2)C1` [ABT-263, reference compound], the EC50 with Molt-4 cells [1] (setting [5]) lay within 0.1 to 1 µM. Further, the “cell killing activity after addition of pomalidomide (+poma) compared to without (-poma)” value in the data set with Molt-4 cells [2] is given as “only slightly affected”. Besides, in the data set with HEF cells, the “toxicity on normal non-senescent HEF cells” value was “toxic killing effects on normal non-senescent HEF cells”.
For `[2H]c1c([2H])c([2H])c2sc(NC(=O)c3cccc4c3CN(c3ccc(-c5cnn(CC67CC8CC(CC(C8)C6)C7)c5C)c(C(=O)O)n3)CC4)nc2c1[2H]` [Compound A13D-1], in data set [3] (setting [6]), the Clint was 266.89 µL/min/mg protein and the T1/2 stood at 0.0865 h. Besides, in data set [4] (setting [7]), the Clint came to 235.82 µL/min/mg protein and the T1/2 was 0.098 h.
The like results for `[2H]C1([2H])c2c(C(=O)Nc3nc4ccccc4s3)cccc2C([2H])([2H])C([2H])([2H])N1c1ccc(-c2cnn(CC34CC5CC(CC(C5)C3)C4)c2C)c(C(=O)O)n1` [Compound A13D-2] were, in that order, 18.15 µL/min/mg protein, 1.273 h, 55.31 µL/min/mg protein and 0.4177 h.
In data set [3] (setting [6]), `[2H]C1([2H])CN(c2ccc(-c3cnn(CC45CC6CC(CC(C6)C4)C5)c3C)c(C(=O)O)n2)Cc2c(C(=O)Nc3nc4ccccc4s3)cccc21` [Compound A13D-5] gave a Clint of 17.61 µL/min/mg protein and a T1/2 of 1.312 h. In data set [4] (setting [7]), this compound displayed a Clint of 53.56 µL/min/mg protein and a T1/2 of 0.4313 h.
In data set [3] (setting [6]), `[2H]C1([2H])Cc2cccc(C(=O)Nc3nc4ccccc4s3)c2CN1c1ccc(-c2cnn(CC34CC5CC(CC(C5)C3)C4)c2C)c(C(=O)O)n1` [Compound A13D-6] registered a Clint of 14.07 µL/min/mg protein and a T1/2 of 1.642 h. Moreover, in data set [4] (human and mouse liver microsomes, compared with A-1331852 and molecules deuterated at other sites), the “metabolic stability in liver microsomes, in words” value is reported as “better metabolic stability in liver microsomes”. In data set [4] (setting [7]), this compound returned a Clint of 50.18 µL/min/mg protein and a T1/2 of 0.4603 h.
Consider `Cc1c(-c2ccc(N3CCc4cccc(C(=O)Nc5nc6ccccc6s5)c4C3)nc2C(=O)O)cnn1CC12CC3CC(CC(C3)C1)C2` [Compound A1331852, reference compound], for which the “cell killing activity after addition of pomalidomide (+poma) compared to without (-poma)” value in the data set on Molt-4 cells [2] is “only slightly affected”.
Consider `O=C(Nc1nc2ccccc2s1)c1cccc2c1CN(c1ccc(CCCOc3ccc(C#CCN4CCNCC4)cc3F)c(C(=O)O)n1)CC2` [Compound C1], for which the “killing Molt-4 cells at different concentrations (Figure 1), in words” value in the data set on Molt-4 cells [1] (Figure 1, 0.001-3 µM, comparison with control molecules) was “higher percentage for killing Molt-4 cells than those of ABT-263 and DT-2216, but lower than those of A-1331852 and A-1155463”. The EC50 in the data set on Molt-4 cells [1] (setting [5]) was in the range of 0.01 to 0.1 µM; in the data set with Molt-4 cells [1] (Bcl-xL-positive Molt-4 cells, read-out: cellular activity / killing activity (Molt-4 cells)), 0.01 to 0.1 µM. Besides, in the data set on Molt-4 cells [1] (comparison with C1, the targeting ligand or control molecules), the “activity for killing Molt-4 cells, in words” value is “higher than that of the commercially available control molecule ABT-263, but lower than those of A-1331852 and A-1155463”. In addition, the Clint in data set [3] (setting [6]) amounted to 4.90 µL/min/mg protein; in data set [4] (setting [7]), 7.36 µL/min/mg protein. In addition, the half-life (usually how long it takes for the measured level to halve) at 1 µM in data set [3] (setting [6]) came out at 4.71 h; in data set [4] (setting [7]) it was 3.14 h. Also, the microsomal CLint at 1 µM in data set [3] (mouse liver microsomes, read-out: clearance rate (metabolic clearance rate)) stood at 4.9 µL/min/mg; in data set [4] (human liver microsomes, read-out: clearance rate (metabolic clearance rate)), 7.36 µL/min/mg. In the data set on Molt-4 cells [2], the “cell killing activity after addition of pomalidomide (+poma) compared to without (-poma)” value was “only slightly affected”.
Turning to `Cc1ncsc1-c1ccc([C@H](C)NC(=O)[C@@H]2C[C@@H](O)CN2C(=O)[C@@H](NC(=O)CCCCCC(=O)N2CCN(CC[C@H](CSc3ccccc3)Nc3ccc(S(=O)(=O)NC(=O)c4ccc(N5CCN(CC6=C(c7ccc(Cl)cc7)CCC(C)(C)C6)CC5)cc4)cc3S(=O)(=O)C(F)(F)F)CC2)C(C)(C)C)cc1` [DT-2216, reference compound], the “cell killing activity after addition of pomalidomide (+poma) compared to without (-poma)” value with Molt-4 cells [2] is recorded as “almost unaffected”.

These data come from patent EP4759810A1, “PROTAC TARGETING BCL-XL PROTEIN AND USE THEREOF” (BEIJING SUNCELL BIO-MEDICAL CO., LTD., priority 2023, dated 2025).
